In patent publication US4190665A, “Substituted arylaliphatic acids” (Lipha, Lyonnaise Industrielle Pharmaceutique, priority 1976, dated 1980):

Columns and labels:
[1] = LD50, orally, mouse (acute toxicity); details: in vivo, po
[2] = system: edema triggered by injecting a carrageenin suspension into the sole of the foot of the rat; test: carrageenin-induced edema test (Winter and Risley), anti-inflammatory effect; assay type: in vivo; details: po, orally, read-out: AD30 orally (active dose 30, inhibiting edema development by 30%)
Protocol: (§1) The anti-inflammatory effect of the new drugs was determined in two tests.
(a) In the carrageenin-induced edema test according to Winter, C. A. and Risley, E. A. (Proc. Soc. Exp. Biol. Med. 1962, 111, 544-547) the protection conferred by the drug administered orally to the rat against an edema triggered by injecting a carrageenin suspension into the sole of the foot of the rat was investigated. The table below gives the "active dose 30" (inhibiting edema development by 30%) of both compounds.

[3] = system: erythema (produced by exposure to ultraviolet radiation) of the shaved back of the guinea pig; test: UV erythema test on the guinea pig (Winder et al.), anti-inflammatory effect; assay type: in vivo, albino guinea pig; details: Cavia porcellus, po, orally, read-out: Active Dose 50 (decreased erythema by 50%)
Protocol: as §1
(b) In the UV erythema test on the guinea pig (Winder, C. V., Wax, J., Burr, V., Been, M., Rosiere, C. E., Arch. Int. Pharmacodyn., 116, 261, 1958) the protective activity against precocious inflammation in the albino guinea pig was investigated. A determination was made of the active dose 50 which, administered orally to the animal, decreased erythema (produced by exposure to ultraviolet radiation) of the shaved back of the guinea pig by 50%.

[4] = system: painful contractures, caused by intraperitoneal injection of a dilute acetic acid solution; test: analgesic activity in the mouse by the method of Koster (acetic acid contractures); assay type: in vivo; details: po, orally, read-out: Active Dose 50 (diminished painful contractures by 50%)
Description: The analgesic activity can be determined in the mouse by the method of Koster, R., Anderson, M., Debeer, E. J., Federation Proc., 1959, 18, 412. A determination was made of the active dose 50 of the drug which, administered orally, diminished painful contractures, caused by intraperitoneal injection of a dilute acetic acid solution, by 50%.

| Compound | LD50 [1] [mg/kg] | ED30 [2] [mg/kg] | ED50 [3] [mg/kg] | ED50 [4] [mg/kg] |
| --- | --- | --- | --- | --- |
| CC(C(=O)O)c1ccc(-n2cccc2)c(N)c1 (centres unmarked) [Compound B, 2-(3'-amino-4'-[1"-pyrrolyl]phenyl) propionic acid] | 3000 | 12 | 4.7 | 19 |
| CC(C(=O)O)c1ccc(-n2cccc2)c([N+](=O)[O-])c1 (centres unmarked) [Compound A, 2-(3'-nitro-4'-[1"-pyrrolyl]phenyl) propionic acid] | 3200 | 12 | 18.4 | 50 |
